The supplement of paper PMC10307832

Key:
Experiment in all cases: relative viability (nuclei count vs DMSO), 5 days (fraction); higher = more cells survive
Shikonin + Pemetrexed = compound: CC(C)=CC[C@@H](O)C1=CC(=O)c2c(O)ccc(O)c2C1=O [Shikonin] + Nc1nc2[nH]cc(CCc3ccc(C(=O)N[C@@H](CCC(=O)O)C(=O)O)cc3)c2c(=O)[nH]1 [Pemetrexed] (partner 0.2 µM)
How it was run: (§1)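 A single step with final 0.05% Triton X-100, 1% formaldehyde and 1 ug/ml Hoechst fixed the cells and stained nuclei 5 days after treatment. Lung cancer cell lines in 1536-well plates had been treated by pin tool the day after seeding with one drug alone or a fixed anchor-drug dose plus five library-drug doses (not always all listed) in √10 steps, and nuclei were counted on 4× images. Relative viability is the ratio of nuclei in treated wells to nuclei in vehicle wells, taken as the median of duplicate plates.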

Shikonin + Linsitinib = compound: CC(C)=CC[C@@H](O)C1=CC(=O)c2c(O)ccc(O)c2C1=O [Shikonin] + C[C@]1(O)C[C@@H](c2nc(-c3ccc4ccc(-c5ccccc5)nc4c3)c3c(N)nccn32)C1 [Linsitinib] (partner 1 µM)
How it was run: as §1

Shikonin + Dasatinib = compound: CC(C)=CC[C@@H](O)C1=CC(=O)c2c(O)ccc(O)c2C1=O [Shikonin] + Cc1nc(Nc2ncc(C(=O)Nc3c(C)cccc3Cl)s2)cc(N2CCN(CCO)CC2)n1 [Dasatinib] (partner 0.075 µM)
How it was run: as §1

[1] = compound: CC(C)N(CCCNC(=O)Nc1ccc(C(C)(C)C)cc1)C[C@H]1O[C@@H](n2ccc3c(N)ncnc32)[C@H](O)[C@@H]1O + CS(=O)(=O)CCNCc1ccc(-c2ccc3ncnc(Nc4ccc(OCc5cccc(F)c5)c(Cl)c4)c3c2)o1 [Lapatinib] (partner 2 µM)
How it was run: as §1

Cell Line | relative viability (Shikonin + Pemetrexed; first compound 0.01 µM) | relative viability (Shikonin + Pemetrexed; first compound 0.3162 µM) | relative viability (Shikonin + Pemetrexed; first compound 1 µM) | relative viability (Shikonin + Linsitinib; first compound 0.01 µM) | relative viability (Shikonin + Linsitinib; first compound 0.1 µM) | relative viability (Shikonin + Linsitinib; first compound 0.3162 µM) | relative viability (Shikonin + Linsitinib; first compound 1 µM) | relative viability (Shikonin + Dasatinib; first compound 0.01 µM) | relative viability (Shikonin + Dasatinib; first compound 0.1 µM) | relative viability (Shikonin + Dasatinib; first compound 0.3162 µM) | relative viability (Shikonin + Dasatinib; first compound 1 µM) | relative viability (Shikonin + Pemetrexed; first compound 0.1 µM) | relative viability ([1]; first compound 0.08 µM) | relative viability ([1]; first compound 0.253 µM) | relative viability ([1]; first compound 0.8 µM) | relative viability ([1]; first compound 2.53 µM) | relative viability ([1]; first compound 8 µM)
NCI-H1648 | 0.793 | 0.979 | 0.742 | – | – | – | – | – | – | – | – | – | – | – | – | – | –
SK-MES-1 | 0.923 | 0.984 | 1.01 | 1.18 | 1.06 | 1.04 | 1.08 | 0.26 | 0.453 | 0.323 | 0.375 | 1.17 | 0.501 | 0.461 | 0.455 | 0.491 | 0.414
NCI-H520 | 0.801 | 0.689 | 0.604 | – | 1.11 | 1.07 | 1.07 | 0.294 | 0.218 | 0.2 | 0.189 | 0.784 | 0.712 | 0.58 | 0.655 | 0.845 | 0.811
HCC-366 | 0.172 | 0.161 | 0.15 | 0.592 | 0.852 | 0.985 | 0.673 | 0.629 | 1.12 | 0.673 | 0.706 | 0.185 | 0.987 | 1.07 | 1.02 | 0.981 | 0.976
201T | 0.346 | 0.368 | 0.307 | 1.01 | 1.04 | 1.08 | 1.03 | 0.561 | 0.661 | 0.579 | 0.615 | 0.382 | 0.99 | 1.07 | 0.863 | 1.02 | 1.01
HCC-827 | 0.23 | 0.234 | 0.259 | 0.909 | 1.09 | 0.999 | 0.906 | 0.266 | 0.357 | 0.316 | 0.344 | 0.283 | 0.207 | 0.217 | – | 0.174 | 0.158
NCI-H661 | 0.944 | 0.957 | 0.729 | 0.724 | 0.575 | 0.656 | 0.546 | 0.866 | 0.856 | 0.816 | 0.983 | 1.02 | 0.441 | 0.467 | 0.519 | 0.404 | 0.523
NCI-H2085 | 0.88 | 0.868 | 0.872 | 0.797 | 0.903 | 0.867 | 0.865 | 0.229 | 0.248 | 0.221 | 0.222 | 0.93 | 0.782 | 0.681 | 0.747 | 0.858 | 0.798
NCI-H647 | 0.194 | 0.183 | 0.156 | 1.01 | 1.37 | 1.51 | 1.32 | 0.159 | 0.156 | 0.145 | 0.171 | 0.174 | 0.961 | – | 0.856 | 0.983 | 0.933
SW 1573 | 0.946 | 0.589 | 0.143 | 0.968 | 0.772 | 0.887 | 0.626 | 0.591 | 0.546 | 0.444 | 0.144 | 0.947 | 1.05 | 1.09 | 1.09 | 1.05 | 1.16
A-427 | 1.02 | 1.01 | 1.24 | 1.11 | 1.21 | 1.19 | 1.14 | 0.877 | 0.801 | 0.721 | 0.658 | 1.04 | 1.01 | 0.99 | 1.05 | 1.04 | 1
NCI-H460 | 0.0561 | 0.06 | 0.063 | 0.914 | 0.819 | 0.992 | 0.904 | 0.509 | 0.762 | 0.556 | 0.605 | 0.0603 | 0.835 | 0.983 | 0.829 | 0.971 | 0.855
NCI-H1703 | – | – | – | 0.797 | 1.3 | 0.555 | 0.417 | – | – | – | – | – | 0.956 | 1.06 | 0.823 | 1.61 | 0.892
NCI-H1792 | 0.819 | 0.689 | 0.958 | 0.511 | 0.388 | 0.658 | 0.661 | 0.91 | 0.6 | 0.934 | 1.01 | 0.82 | 0.878 | 0.851 | 0.839 | 0.831 | 0.902
Calu-6 | – | – | – | 0.984 | 1.08 | 0.984 | 0.972 | – | – | – | – | – | 1.05 | 1.09 | 1.09 | 1.12 | 1.09
SK-LU-1 | 1.14 | 1.01 | 0.994 | 1.26 | 1.27 | 0.999 | 1.01 | 0.164 | 0.191 | 0.182 | 0.186 | 1.17 | 0.892 | 0.887 | 0.989 | 1.13 | 0.748
EMC-BAC-2 | 0.44 | 0.453 | 0.422 | 0.8 | 0.836 | 0.839 | 0.855 | 0.301 | 0.322 | 0.375 | 0.298 | 0.503 | 0.9 | 0.916 | 0.915 | 0.929 | 0.82
LK-2 | 0.311 | 0.306 | 0.266 | 0.589 | 0.539 | 0.527 | 0.473 | 0.273 | 0.258 | 0.228 | 0.267 | 0.3 | 0.842 | 0.792 | 0.985 | 0.867 | 0.82
NCI-H2228 | 0.314 | 0.38 | 0.355 | 0.629 | 0.738 | 0.7 | 0.626 | 0.539 | 0.534 | 0.46 | 0.522 | 0.355 | 0.971 | – | 1.06 | 0.949 | 0.984
NCI-H322M | 0.575 | 0.6 | 0.777 | 0.919 | 0.837 | 0.993 | 1.13 | 0.237 | 0.271 | 0.261 | 0.27 | 0.591 | 0.536 | 0.591 | 0.607 | 0.564 | 0.607
